Assay results published in ChEMBL document CHEMBL3885861, “Open TG-GATES”.

Species on record: Rattus norvegicus
Test: Open TG-GATES - Regimen: Daily Repeat
Format: toxicity, organism-based, Sprague-Dawley
Design: regimen Daily Repeat, gender Male, age 6 weeks
Conditions: in vivo, po, 100 mg/kg, route gavage, dose level Middle; for APTT / Bas / Eos / Fbg / Hb / Ht / Lym / MCH / MCHC / MCV / Mono / Neu / PT / Plat / RBC / Ret / WBC: tissue Blood; for KIDNEY_L / KIDNEY_R / KIDNEY_TOTAL: tissue Kidney; for LIVER: tissue Liver; for A/G / ALP / ALT / AST / BUN / CRE / Ca / Cl / DBIL / GLC / IP / K / LDH / Na / PL / RALB / TBIL / TC / TG / TP / gamma-GTP: tissue Plasma

SMILES: NNC(=O)c1ccncc1 [ISONIAZID]
- TERMINAL_BW (72 h, time 3 day): 217.2 g
- APTT (72 h, time 3 day): 15.8 s
- Bas (72 h, time 3 day): 0%
- Eos (72 h, time 3 day): 0.6%
- Fbg (72 h, time 3 day): 245.2 mg/dL
- Hb (72 h, time 3 day): 13.4 g/dL
- Ht (72 h, time 3 day): 40.2%
- Lym (72 h, time 3 day): 82.2%
- MCH (72 h, time 3 day): 21.8 pg
- MCHC (72 h, time 3 day): 33.4%
- MCV (72 h, time 3 day): 65.2 fL
- Mono (72 h, time 3 day): 5%
- Neu (72 h, time 3 day): 12.2%
- PT (72 h, time 3 day): 12.1 s
- Plat (72 h, time 3 day): 115.4 x10_4/uL
- RBC (72 h, time 3 day): 616.6 x10_4/ul
- Ret (72 h, time 3 day): 7.3%
- WBC (72 h, time 3 day): 87 x10_2/uL
- KIDNEY_L (72 h, time 3 day): 1.1 g
- KIDNEY_R (72 h, time 3 day): 1.1 g
- KIDNEY_TOTAL (72 h, time 3 day): 2.1 g
- LIVER (72 h, time 3 day): 11.5 g
- A/G (72 h, time 3 day): 1.7
- ALP (72 h, time 3 day): 962 IU/L
- ALT (72 h, time 3 day): 18.6 IU/L
- AST (72 h, time 3 day): 55 IU/L
- BUN (72 h, time 3 day): 17.2 mg/dL
- CRE (72 h, time 3 day): 0.5 mg/dL
- Ca (72 h, time 3 day): 10.9 mg/dL
- Cl (72 h, time 3 day): 103.4 meq/L
- DBIL (72 h, time 3 day): 0.014 mg/dL
- GLC (72 h, time 3 day): 204.2 mg/dL
- IP (72 h, time 3 day): 8.6 mg/dL
- K (72 h, time 3 day): 5 meq/L
- LDH (72 h, time 3 day): 93.4 IU/L
- Na (72 h, time 3 day): 140.6 meq/L
- PL (72 h, time 3 day): 158.6 mg/dL
- RALB (72 h, time 3 day): 3.7 g/dL
- TBIL (72 h, time 3 day): 0.3 mg/dL
- TC (72 h, time 3 day): 81.4 mg/dL
- TG (72 h, time 3 day): 104.6 mg/dL
- TP (72 h, time 3 day): 6 g/dL
- gamma-GTP (72 h, time 3 day): 1 IU/L
- TERMINAL_BW ([…], time 7 day): 244.8 g
- TERMINAL_BW ([…], time 14 day): 283.5 g
- TERMINAL_BW ([…], time 28 day): 361.7 g
- APTT ([…], time 7 day): 16.2 s
- Bas ([…], time 7 day): 0%
- Eos ([…], time 7 day): 1%
- Fbg ([…], time 7 day): 234.8 mg/dL
- Hb ([…], time 7 day): 13.6 g/dL
- Ht ([…], time 7 day): 40.6%
- Lym ([…], time 7 day): 84.2%
- MCH ([…], time 7 day): 21.2 pg
- MCHC ([…], time 7 day): 33.5%
- MCV ([…], time 7 day): 63.2 fL
- Mono ([…], time 7 day): 6.6%
- Neu ([…], time 7 day): 8.8%
- PT ([…], time 7 day): 12.2 s
- Plat ([…], time 7 day): 121.4 x10_4/uL
- RBC ([…], time 7 day): 641.8 x10_4/ul
- Ret ([…], time 7 day): 6.3%
- WBC ([…], time 7 day): 150.1 x10_2/uL
- APTT ([…], time 14 day): 15.7 s
- Bas ([…], time 14 day): 0%
- Eos ([…], time 14 day): 0.8%
- Fbg ([…], time 14 day): 221.4 mg/dL
- Hb ([…], time 14 day): 13.9 g/dL
- Ht ([…], time 14 day): 41.4%
- Lym ([…], time 14 day): 83.4%
- MCH ([…], time 14 day): 19.7 pg
- MCHC ([…], time 14 day): 33.6%
- MCV ([…], time 14 day): 58.6 fL
- Mono ([…], time 14 day): 4.6%
- Neu ([…], time 14 day): 10.8%
- PT ([…], time 14 day): 12.1 s
- Plat ([…], time 14 day): 125.3 x10_4/uL
- RBC ([…], time 14 day): 706.6 x10_4/ul
- Ret ([…], time 14 day): 5.1%
- WBC ([…], time 14 day): 172.6 x10_2/uL
- APTT ([…], time 28 day): 16.3 s
- Bas ([…], time 28 day): 0%
- Eos ([…], time 28 day): 1.4%
- Fbg ([…], time 28 day): 227.4 mg/dL
- Hb ([…], time 28 day): 14.4 g/dL
- Ht ([…], time 28 day): 42.8%
- Lym ([…], time 28 day): 80.6%
- MCH ([…], time 28 day): 18.6 pg
- MCHC ([…], time 28 day): 33.8%
- MCV ([…], time 28 day): 55 fL
- Mono ([…], time 28 day): 3.6%
- Neu ([…], time 28 day): 14.4%
- PT ([…], time 28 day): 12.2 s
- Plat ([…], time 28 day): 119.2 x10_4/uL
- RBC ([…], time 28 day): 780 x10_4/ul
- Ret ([…], time 28 day): 2.9%
- WBC ([…], time 28 day): 151.6 x10_2/uL
- KIDNEY_L ([…], time 7 day): 1.1 g
- KIDNEY_R ([…], time 7 day): 1.1 g
- KIDNEY_TOTAL ([…], time 7 day): 2.2 g
- KIDNEY_L ([…], time 14 day): 1.2 g
- KIDNEY_R ([…], time 14 day): 1.2 g
- KIDNEY_TOTAL ([…], time 14 day): 2.5 g
- KIDNEY_L ([…], time 28 day): 1.4 g
- KIDNEY_R ([…], time 28 day): 1.5 g
- KIDNEY_TOTAL ([…], time 28 day): 2.9 g
- LIVER ([…], time 7 day): 11.5 g
- LIVER ([…], time 14 day): 12.7 g
- LIVER ([…], time 28 day): 15.3 g
- A/G ([…], time 7 day): 1.6
- ALP ([…], time 7 day): 823.2 IU/L
- ALT ([…], time 7 day): 15.4 IU/L
- AST ([…], time 7 day): 56.6 IU/L
- BUN ([…], time 7 day): 18.4 mg/dL
- CRE ([…], time 7 day): 0.5 mg/dL
- Ca ([…], time 7 day): 10.3 mg/dL
- Cl ([…], time 7 day): 105.4 meq/L
- DBIL ([…], time 7 day): 0.052 mg/dL
- GLC ([…], time 7 day): 215.4 mg/dL
- IP ([…], time 7 day): 8.4 mg/dL
- K ([…], time 7 day): 4.9 meq/L
- LDH ([…], time 7 day): 92.2 IU/L
- Na ([…], time 7 day): 139.4 meq/L
- PL ([…], time 7 day): 134.8 mg/dL
- RALB ([…], time 7 day): 3.6 g/dL
- TBIL ([…], time 7 day): 0.3 mg/dL
- TC ([…], time 7 day): 70.4 mg/dL
- TG ([…], time 7 day): 91.6 mg/dL
- TP ([…], time 7 day): 5.9 g/dL
- gamma-GTP ([…], time 7 day): 1 IU/L
- A/G ([…], time 14 day): 1.7
- ALP ([…], time 14 day): 722 IU/L
- ALT ([…], time 14 day): 11.8 IU/L
- AST ([…], time 14 day): 53.4 IU/L
- BUN ([…], time 14 day): 19.6 mg/dL
- CRE ([…], time 14 day): 0.5 mg/dL
- Ca ([…], time 14 day): 10.4 mg/dL
- Cl ([…], time 14 day): 106 meq/L
- DBIL ([…], time 14 day): 0.04 mg/dL
- GLC ([…], time 14 day): 217.2 mg/dL
- IP ([…], time 14 day): 8 mg/dL
- K ([…], time 14 day): 5.1 meq/L
- LDH ([…], time 14 day): 92 IU/L
- Na ([…], time 14 day): 138.6 meq/L
- PL ([…], time 14 day): 140.4 mg/dL
- RALB ([…], time 14 day): 3.8 g/dL
- TBIL ([…], time 14 day): 0.4 mg/dL
- TC ([…], time 14 day): 70 mg/dL
- TG ([…], time 14 day): 94.8 mg/dL
- TP ([…], time 14 day): 6.1 g/dL
- gamma-GTP ([…], time 14 day): 1 IU/L
- A/G ([…], time 28 day): 1.4
- ALP ([…], time 28 day): 589.6 IU/L
- ALT ([…], time 28 day): 11.6 IU/L
- AST ([…], time 28 day): 55.2 IU/L
- BUN ([…], time 28 day): 20.2 mg/dL
- CRE ([…], time 28 day): 0.5 mg/dL
- Ca ([…], time 28 day): 10 mg/dL
- Cl ([…], time 28 day): 104.6 meq/L
- DBIL ([…], time 28 day): 0.024 mg/dL
- GLC ([…], time 28 day): 222.6 mg/dL
- IP ([…], time 28 day): 6.9 mg/dL
- K ([…], time 28 day): 4.5 meq/L
- LDH ([…], time 28 day): 75.8 IU/L
- Na ([…], time 28 day): 140.6 meq/L
- PL ([…], time 28 day): 141.8 mg/dL
- RALB ([…], time 28 day): 3.6 g/dL
- TBIL ([…], time 28 day): 0.2 mg/dL
- TC ([…], time 28 day): 68.6 mg/dL
- TG ([…], time 28 day): 105.4 mg/dL
- TP ([…], time 28 day): 6.2 g/dL
- gamma-GTP ([…], time 28 day): 1 IU/L
